Results taken from patent US4312883A, “Furocoumarin for the photochemotherapy of psoriasis and related skin diseases” (Consiglio Nazionale delle Ricerche, priority 1979, dated 1982).
Structures can show the parent of a compound that is named as a salt. Where two headings read alike, the source gives them in different places.

Columns and labels:
DNA [1] = test: Dark complex formation (intercalation) with DNA in the ground state, binding parameters; design: K (association constants) of the complexes with DNA: unit not given here; conditions: for K (association constants) of the complexes with DNA / 1/n (frequency of binding sites): in vitro, ground state; for K (association constants) of the complexes with DNA: McGhee and Von Hippel method; for 1/n (frequency of binding sites): molecules bound per nucleotide; for 1/n (frequency of binding sites), relative / K (association constants), relative: relative (ang = 100)
Excerpt: Dark complex formation: It is known from F. Dall'Acqua, et al. Chem.-Biol. Interactions 21,103 (1978) that the intercalated complex formed by furocoumarins with DNA strongly affects the successive photoaddition increasing the rate of photobinding. […] These parameters have been determined according to the method of McChee and Von Hippel, J.Mol.Biol, 86, 469 (1974).
(a) Determined according to Mc Ghee and Von Hippel, J. Mol. Biol.,

DNA [2] = test: Photobinding to DNA, rate constants of the photoreactions; format: biochemical; conditions: for photobinding capacity to DNA (in words): versus angelicin; for Rate constants of the photoreactions with DNA: in vitro, UV-A irradiated; for Rate constants of the photoreactions with DNA, relative: relative (ang = 100)
Excerpt: (b) Determined according to F. Dall'Acqua, S. Marciani, F. Zambon and G.
Rodighiero, Photochem. Photobiol., 29,489(1979).
Photobinding capacity to DNA: The introduction of one or two methyl groups in the molecule of angelicin leads to a strong increase of the photobinding to DNA; see Table II. […] Photobiol., 29, 489 (1979).

DNA [3] = test: Capacity to form inter-strand cross-linkages in DNA; format: biochemical; conditions: (psr = 100)
Protocol: All these compounds were not suitable to photoinduce in DNA inter-strand cross-linkages. […] These tests were carried out according to the method of F. Bordin et al., Photochem. Photobiol., 29,1063 (1979).

[4] = system: DNA synthesis in Ehrlich ascites tumor cells; test: Inhibition of DNA synthesis (and DNA and RNA synthesis) on irradiation at 365 nm; format: cell-based; conditions: for inhibition of DNA synthesis, relative: relative (ang = 100)
Excerpt: (§1) Photobiological activity: A significant test for assessing photobiological activity of alkylangelicins is the study of their capacity to inhibit DNA and RNA synthesis in Ehrlich ascites tumor cells. In Table III the capacity of inhibition is expressed as ID50, that is the irradiation does, in terms of quanta at 365 nm, necessary to inhibit in these cells the 50% of the DNA and RNA synthesis in the presence of a constant amount of alkylangelicin. […] Moreover, in general it can be observed that in this simple biological system a close correlation exists between photobiological activity and the capacity to induce photochemical lesions in DNA, that is photoreactivity.

[5] = system: RNA synthesis in Ehrlich ascites tumor cells; test: Inhibition of RNA synthesis on irradiation at 365 nm; format: cell-based; conditions: relative (ang = 100)
Excerpt: as §1

epidermal DNA synthesis [6] = test: Inhibition of epidermal DNA synthesis in the mouse in vivo after topical application and UV-A irradiation; conditions: light or radiation study, 0.01% methanol solutions, UV-A 9 J/cm^2, read-out: Percent inhibition ± standard error of epidermal DNA synthesis
Protocol: DNA samples were dissolved in water and their specific radioactivity determined.
Each drug substance was studied using at least six mice.

Solubility = format: physicochemical
skin = test: Relative skin phototoxicity; conditions: (psr = 100)
epidermal DNA synthesis [7] = test: Inhibition of the synthesis of epidermal DNA of the mouse in vivo after oral administration and UV-A irradiation; conditions: oral 0.25 g/Kg, UV-A 9 J/cm^2 after two hours
Excerpt: Considering that the topical skin tests carried out on mice to evaluate the effectiveness of these substances has yielded data which correlate well with the clinical data, such a test conveniently modified has been adopted to evaluate the effectiveness of the alkylangelicins after oral administration followed by UV-A irradiation.
In this connection experiments have been conducted using mice 20±2 g in weight, that were starved for three hours before oral administration of the alkylangelicins. Groups of 5 mice were fed a suspension of 0.5% methylcellulose in water containing the alkylangelicins of the invention at a dosage of 0.25 g/Kg. The animals were kept in the dark for two hours, that is for the time necessary for absorption, systemic distribution and localization of the drug at the level of the skin. The animals were then irradiated with UV-A light, 9 J/cm^2. Later the animals were sacrificed and the inhibition of the epidermal DNA synthesis was tested; the results obtained are reported in Table VI. The skin on the back, protected from light by a dark paper, was assumed as a control. As a reference 8-MOP, used under the same experimental conditions, was also tested. The significant activity of the alkylangelicins according to the present invention, higher than that of 8-MOP, in inhibiting the epidermal DNA synthesis in mice upon oral administration allows one to consider these compounds as also being effective for oral administration to humans for photochemotherapy of psoriasis and of other skin diseases that are characterized by cellular hyperproliferation.

psoriasis = test: Topical photochemotherapy of psoriasis in patients; format: in vivo, human; conditions: for No. of patients with Excellent result / No. of patients with Fair result / No. of patients with Good result / No. of patients with Poor result: topical 0.1% w/v + UV-A; for No. of patients with Excellent result: Excellent = 90% clearance; for No. of patients with Fair result: Fair = 50-70%; for No. of patients with Good result: Good = 70-90%; for No. of patients with Poor result: Poor 40%
Excerpt: Clinical data: The effectiveness of certain representative alkylangelicins according to the present invention, specifically 5-methylangelicin, 4,5'-dimethylangelicin, 4'-hydroxymethyl-4,5'-dimethylangelicin, 4'-hydroxymethyl-4,5'-dimethylangelicin and 4,5-dimethylangelicin, has been tested by measuring their capacity to resolve psoriasis in various patients. For a direct comparison the efficacy of the parent unsubstituted angelicin and that of three very effective linear furocoumarins, that is 8-methoxypsoralen (8-MOP), 5-methoxypsoralen (5-MOP), and 4,5',8-trimethylpsoralen (TMP) were also tested.
In each treatment four areas of the affected skin were used;
(a) In the first area an alcohol lotion, containing 10% glycerine, of the tested compound (0.1% w/v) was applied until a concentration of […] was reached then left to evaporate by the heat of the body. After half an hour the area was irradiated with high intensity UV-A emitting low pressure mercury fluorescent lamps with a wavelength of 320-400 nm. The irradiation doses were selected in the range of 4.5-13 J/cm^2 for each application as a function of the sensitivity of the skin of the patients; when the skin sensitivity was higher, the light doses were lower and vice versa.
(b) A second area was treated with an alcohol solution of the drug as in (a) but it was covered and maintained in the dark.
(c) A third area, where the drug was not applied, was irradiated as in (a) but in general with higher UV-A doses.
(d) A fourth area was not treated at all, neither with the drug, not with UV-A.
The treatment with the alkylangenlicins referred to above was repeated 5 time a week for two or more weeks; the total number of treatments was between 8 and 20 per subject. In some cases, as for instance with 5-methylangelicin, a good clearing of psoriasis was observed after 8 treatments.
In order to avoid induction of photosensitization processes such as redness and erythema in the reference tests made with the linear furocoumarins 8-MOP, 5-MOP, TMP, lower light doses were used than in the case of alkylangelicins, the treatments were repeated at a frequency of no more than three times a week.

Acute toxicity in mice = conditions: mouse, in vivo, po
[8] = system: Salmonella typhimurium TA 100; test: Ames test; format: cell-based; conditions: Salmonella typhimurium TA 100 his G46 (uvrB^- rfa) pKM101; versus 4,5'-dimethylangelicin
DNA [9] = conditions: (psr = 100); footnote (c), reference compounds; cited from earlier work
melamin pigmentation = conditions: Table I; cited from earlier work
[10] = cited from earlier work
DNA [11] = conditions: cited from earlier work
DNA synthesis = conditions: Table I; cited from earlier work
[12] = known furocoumarins, Table I; cited from earlier work
[13] = Table I; cited from earlier work

Row | photobinding capacity to DNA (in words) (DNA [2]) | water solubility (Solubility) | Structure (SMILES) | K (association constants) of the complexes with DNA (DNA [1]) | 1/n (frequency of binding sites) (DNA [1]) | 1/n (frequency of binding sites), relative (DNA [1]) | K (association constants), relative (DNA [1]) | capacity to form interstrand cross-linkages (DNA [3]) | inhibition of DNA synthesis, relative [4] | inhibition of RNA synthesis, relative [5] | inhibition in vivo at 0.01 % (epidermal DNA synthesis [6]) | Relative skin phototoxicity (skin) | Rate constants of the photoreactions with DNA (DNA [2]) | Rate constants of the photoreactions with DNA, relative (DNA [2]) | Percent inhibition ± standard error of epidermal DNA synthesis (epidermal DNA synthesis [7]) | No. of patients with Excellent result (psoriasis) | No. of patients with Fair result (psoriasis) | No. of patients with Good result (psoriasis) | No. of patients with Poor result (psoriasis) | LD50 (Acute toxicity in mice) | capacity to form interstrand cross-linkages (DNA [9]) | further results
1 | strongly increased photobinding capacity | water soluble | Cc1oc2ccc3c(C)cc(=O)oc3c2c1COCCN(C)C [4,5'-dimethyl-4'-N,N-dimethylaminoethoxymethylangelicin] | > 10000 | > 0.15 | > 230 | > 1700 | 0 | 290 | 162 | 29.4 ± 16.2% | 0 |  |  |  |  |  |  |  |  |  | increase of K (affinity towards DNA) (DNA [1]; on introduction of a cationic moiety in addition to the two methyl groups): more than 20 times
2 | lower than that of angelicin | water soluble | Cc1oc2ccc3c(C)cc(=O)oc3c2c1CN [4,5'-dimethyl-4'-aminomethylangelicin hydrochloride] | 16300 | 0.255 | 404 | 2910 | 0 | 25 | 23.3 |  | 0 | 0.8 K × 10^-2 × min^-1 | 72 |  |  |  |  |  |  |  | capacity to inhibit the DNA and RNA synthesis (in words) ([4]; Ehrlich ascites tumor cells, versus angelicin): lower than that of angelicin
3 |  |  | Cc1cc2c(ccc3c(C)cc(=O)oc32)o1 [4,5'-dimethylangelicin] | 1410 | 0.094 | 149 | 252 | 0 | 230 | 172 | 37.6 ± 4.9% | 0 | 4.0 K × 10^-2 × min^-1 | 363 | 51.0 ± 8.0% | 0 patients | 3 patients | 1 patients | 0 patients | 2500 mg/kg |  | 
4 |  |  | Cc1cc2occc2c2oc(=O)ccc12 [5-methylangelicin] | 1560 | 0.071 | 112 | 278 | 0 | 275 | 281 | 47.5 ± 1.19% | 0 | 3.41 K × 10^-2 × min^-1 | 298 |  | 2 patients | 0 patients | 5 patients | 0 patients | 2000 mg/kg |  | mutagenic activity (Ames test) [8]: of the same order of magnitude as that of 4,5'-dimethylangelicin; efficacy in psoriasis patients (in words) (psoriasis; topical + UV-A): very active, probably more active than the same amount of 8-MOP; number of treatments to good clearing of psoriasis (psoriasis; topical + UV-A, 5 times a week, in some cases): 8 treatments
5 |  |  | COc1c2occc2cc2ccc(=O)oc12 [8-MOP, 8-methoxypsoralen, reference compound] | 740 | 0.128 | 203 | 132 |  | 249 | 93 | 61 ± 1.6% | 71 | 2.3 K × 10^-2 × min^-1 | 209 | 39.1 ± 3.7% | 3 patients | 2 patients | 3 patients | 2 patients | 800 mg/kg | 63 | Stimulation of melamin pigmentation (melamin pigmentation): strong, well known; Carcinogenicity (oral) ([10]; oral): weak; Carcinogenicity (topical) ([10]; topical): strong; DNA intercalation property (DNA [11]; Table I): strong; Interstrand cross-linking induction in DNA (DNA [11]; Table I): strong, well known; Monoadduct forming property (DNA [11]; Table I): known, strong; Photobinding capacity to DNA (DNA [11]; known furocoumarins): known, strong; DNA synthesis inhibiting property (DNA synthesis): known, strong; Photosensitizing activity [12]: known, strong; Mutagenicity [13]: known, strong
6 |  |  | O=c1ccc2cc3ccoc3cc2o1 [psoralen, reference compound] | 400 | 0.108 | 171 | 71.4 |  | 275 | 166 | 47.8 ± 7.9% | 100 | 3.8 K × 10^-2 × min^-1 | 345 |  |  |  |  |  |  | 100 | 
